# US10100018B2, “Amide derivatives as lysophosphatidic acid receptor antagonists” (Takeda Pharmaceutical Company Limited, priority 2013, dated 2018)
# Where a name gives a salt, the structure may show the parent alone. Read-outs that look alike come from different tables or passages of the source.
# What was measured:
# [1] = test system: FPP-induced hyperalgesia; experiment: In vivo farnesyl pyrophosphate-induced inflammatory (hyperalgesia) model, Randall-Selitto; conditions: Rattus norvegicus, adult male rats, read-out: In vivo efficacy (minimum effective dose (MED)
# Protocol: In Vivo Farnesyl Pyrophosphate-Induced Inflammatory Model
# The FPP-induced hyperalgesia model is a pharmacodynamic rat model which involves inducing pain by injecting FPP, an agonist of LPA5 receptor, into the plantar surface of the hindpaw.
# Withdrawal responses were reassessed at 30 and 90 minutes after injection of FPP in the ipsilateral paw.
# [2] = test system: bleomycin-induced scleroderma; experiment: In vivo bleomycin induced scleroderma model; parameters: species or system C57BL/6 mice; conditions: for skin collagen content compared to the vehicle-treated group: skin samples Day 28
# Protocol: In Vivo Bleomycin Induced Scleroderma Model
# Adult male C57BL/6 mice, aged 8-10 weeks, were assigned to groups and allowed to acclimatise for a week. On Day −1, the back skin of the animals was shaved. From Day 0, animals were administered with 100 μl of a 1 mg/ml solution of bleomycin sulphate in phosphate buffered saline (PBS) by intradermal injection in the shaved skin. Injections were repeated in a one square centimeter area every other day for four weeks. A group of ten animals (Control group) was injected with an identical volume of PBS. Animals were weighed at the beginning of the experiment on Day 0 and then twice weekly throughout the study. At the end of the experiment, on Day 28, animals were culled and samples of back skin were taken for further analysis. All groups were n=10; the vehicle was distilled water and the administration volume was 10 ml/kg for oral gavage (p.o.); administration volume was 25 μl for topical application.
# Bodyweights were graphed along with the standard error of the mean (SEM); Skin samples (two punch biopsies per animal, 4 mm in diameter each) samples were hydrolyzed and hydroxyproline content of the samples was determined from analysis in a semi-automated process using a continuous flow analyzer. Autoanalyser readings were calibrated against hydroxyproline standards and collagen content calculated.
# [3] = molecular target: LPA5 receptor (Homo sapiens (Human), UniProt Q9H1C0); conditions: reported, Williams et al. (2009); cited from earlier work
# Sequence of LPA5 receptor (Q9H1C0 whole entry): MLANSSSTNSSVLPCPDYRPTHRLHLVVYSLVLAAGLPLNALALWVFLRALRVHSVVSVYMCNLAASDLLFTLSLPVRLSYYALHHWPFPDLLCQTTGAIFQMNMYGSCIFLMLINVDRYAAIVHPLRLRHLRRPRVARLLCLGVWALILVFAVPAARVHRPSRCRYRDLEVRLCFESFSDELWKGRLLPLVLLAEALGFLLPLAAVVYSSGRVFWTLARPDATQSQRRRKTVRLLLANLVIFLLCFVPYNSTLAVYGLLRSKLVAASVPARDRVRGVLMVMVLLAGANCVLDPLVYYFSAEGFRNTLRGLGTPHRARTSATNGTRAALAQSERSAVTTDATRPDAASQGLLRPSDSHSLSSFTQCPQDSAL
Structure (SMILES),minimal effective dose ([1]; route po),other results
"COc1ccccc1Oc1ccc(C(=O)N(Cc2ccc(C(=O)O)cc2)CC2CC2)cc1 [Example 31, 4-((N-(Cyclopropylmethyl)-4-(2-methoxyphenoxy)benzamido)-methyl)benzoic acid]",1 mg/kg,–
"O=C(O)c1ccc(CN(Cc2ccccc2)C(=O)c2ccc(Oc3ccccc3F)cc2)cc1 [Example 11, 4-((N-Benzyl-4-(2-fluorophenoxy)benzamido)methyl)benzoic acid]",≤ 10 mg/kg,–
"C[C@H]1C[C@H]2[C@@H]3CCC4=CC(=O)C=C[C@]4(C)[C@@]3(F)[C@@H](O)C[C@]2(C)[C@@]1(O)C(=O)CO [Betamethasone, reference compound]",–,skin collagen content compared to the vehicle-treated group ([2]; administered from Day 0): non-significant reduction
"Cc1ccccc1Oc1ccc(C(=O)N(Cc2ccccc2)Cc2ccc(C(=O)O)cc2)cc1 [Example 24, 4-((N-Benzyl-4-(o-tolyloxy)benzamido)methyl)benzoic acid]",30 mg/kg,–
CC(C)=CCC/C(C)=C/CC/C(C)=C/COP(=O)(O)OP(=O)(O)O [Farnesyl pyrophosphate],–,selectivity over other LPA receptors [3]: 3 fold
"COc1ccccc1Oc1ccc(C(=O)N(Cc2ccc(C(=O)O)cc2)CC(F)F)cc1 [Example 29, 4-((N-(2,2-Difluoroethyl)-4-(2-methoxyphenoxy)benzamido)-methyl)benzoic acid]",3 mg/kg,–
"Cc1ccc(NC(=O)c2ccc(CN3CCN(C)CC3)cc2)cc1Nc1nccc(-c2cccnc2)n1 [Imatinib, Imatinib mesylate, reference compound]",–,skin collagen content compared to the vehicle-treated group ([2]; administered from Day 0): non-significant reduction
"Cc1cccc(F)c1Oc1ccc(C(=O)N(Cc2ccc(C(=O)O)cc2)CC2CC2)cc1 [Example 40, 4-((N-(Cyclopropylmethyl)-4-(2-fluoro-6-methylphenoxy)-benzamido)methyl)benzoic acid]",60 mg/kg,–
"O=C(O)c1ccc(CN(CC(F)(F)F)C(=O)c2ccc(Oc3ccccc3F)cc2)cc1 [Example 3, 4-((4-(2-Fluorophenoxy)-N-(2,2,2-trifluoroethyl)benzamido)-methyl)benzoic acid]",≤ 10 mg/kg,–
"CC(C)CCN(Cc1ccc(C(=O)O)cc1)C(=O)c1ccc(Oc2ccccc2F)cc1 [Example 8, 4-((4-(2-Fluorophenoxy)-N-isopentylbenzamido)methyl)benzoic acid]",100 mg/kg,–
"O=C(O)c1ccc(CN(CC2CC2)C(=O)c2ccc(Oc3ccccc3F)cc2)cc1 [Example 5, 4-((N-(Cyclopropylmethyl)-4-(2-fluorophenoxy)benzamido)-methyl)benzoic acid]",≤ 10 mg/kg,"minimal effective dose ([1]; route ip): 0.3 mg/kg; bodyweight loss compared to the vehicle-treated group ([2]; 30 mg/kg p.o. BID, treated groups): did not differ; skin collagen content compared to the vehicle-treated group ([2]; administered from Day 0): significant reduction; skin collagen content compared to the vehicle-treated group ([2]; administered from Day 14 to Day 28, 30 mg/kg p.o. BID): significant reduction"
"CC(C)CN(Cc1ccc(C(=O)O)cc1)C(=O)c1ccc(Oc2ccccc2F)cc1 [Example 4, 4-((4-(2-Fluorophenoxy)-N-isobutylbenzamido)methyl)benzoic acid]",≤ 10 mg/kg,minimal effective dose ([1]; route ip): 1 mg/kg
